{"source": "ChEMBL document CHEMBL5528034", "about": "“Fragment-to-Lead Medicinal Chemistry Publications in 2022” (J Med Chem, 2024)", "key": {"[1]": {"target": "Transcriptional enhancer factor TEF-1 (Homo sapiens, UniProt P28347)", "sequence (P28347 whole entry)": "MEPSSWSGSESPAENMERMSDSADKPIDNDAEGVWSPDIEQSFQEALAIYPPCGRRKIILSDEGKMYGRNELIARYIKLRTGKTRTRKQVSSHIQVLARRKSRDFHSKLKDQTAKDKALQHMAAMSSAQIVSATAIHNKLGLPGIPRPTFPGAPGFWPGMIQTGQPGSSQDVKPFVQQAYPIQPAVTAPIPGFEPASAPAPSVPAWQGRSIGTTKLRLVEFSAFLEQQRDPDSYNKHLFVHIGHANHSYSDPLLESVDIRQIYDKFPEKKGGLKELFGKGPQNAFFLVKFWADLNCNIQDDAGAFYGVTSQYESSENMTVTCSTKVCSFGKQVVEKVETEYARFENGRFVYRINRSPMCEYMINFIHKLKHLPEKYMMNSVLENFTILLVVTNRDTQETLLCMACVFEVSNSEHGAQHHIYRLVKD", "description": "Binding affinity to human recombinant N-terminal His-tagged TEAD1 (residues 209 to 424) expressed in Escherichia coli BL21 (DE3) assessed as dissociation constant"}, "[2]": {"target": "Replicase polyprotein 1ab (Severe acute respiratory syndrome coronavirus 2, UniProt P0DTD1)", "description": "Binding affinity to SARS-CoV-2 Main protease assessed as dissociation constant by SPR analysis"}, "[3]": {"target": "Interleukin-1 beta (Homo sapiens, UniProt P01584)", "sequence (P01584 117-269 limits assumed)": "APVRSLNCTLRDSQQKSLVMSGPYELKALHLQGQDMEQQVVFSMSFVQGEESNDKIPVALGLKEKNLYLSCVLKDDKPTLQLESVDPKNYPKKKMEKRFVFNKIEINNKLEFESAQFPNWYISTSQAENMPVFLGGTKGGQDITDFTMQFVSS", "test": "Binding affinity to Interleukin-1beta (unknown origin) assessed as dissociation constant"}, "[4]": {"target": "T1, Pantothenate synthetase (Mycobacterium tuberculosis, UniProt P9WIL5)", "T1 sequence (P9WIL5 whole entry)": "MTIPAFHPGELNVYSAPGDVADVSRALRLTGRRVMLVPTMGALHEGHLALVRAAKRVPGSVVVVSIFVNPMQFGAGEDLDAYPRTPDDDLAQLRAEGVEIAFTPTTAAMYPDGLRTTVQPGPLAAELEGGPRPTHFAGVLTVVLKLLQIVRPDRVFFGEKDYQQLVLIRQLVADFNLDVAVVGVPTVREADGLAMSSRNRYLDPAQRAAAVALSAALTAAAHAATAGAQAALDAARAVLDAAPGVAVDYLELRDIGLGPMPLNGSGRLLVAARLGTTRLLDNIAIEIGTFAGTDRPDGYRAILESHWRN", "test": "Inhibition of Mycobacterium tuberculosis H37Ra pantothenate synthetase"}, "[5]": {"target": "Transcriptional enhancer factor TEF-4 (Homo sapiens, UniProt Q15562)", "sequence (Q15562 whole entry)": "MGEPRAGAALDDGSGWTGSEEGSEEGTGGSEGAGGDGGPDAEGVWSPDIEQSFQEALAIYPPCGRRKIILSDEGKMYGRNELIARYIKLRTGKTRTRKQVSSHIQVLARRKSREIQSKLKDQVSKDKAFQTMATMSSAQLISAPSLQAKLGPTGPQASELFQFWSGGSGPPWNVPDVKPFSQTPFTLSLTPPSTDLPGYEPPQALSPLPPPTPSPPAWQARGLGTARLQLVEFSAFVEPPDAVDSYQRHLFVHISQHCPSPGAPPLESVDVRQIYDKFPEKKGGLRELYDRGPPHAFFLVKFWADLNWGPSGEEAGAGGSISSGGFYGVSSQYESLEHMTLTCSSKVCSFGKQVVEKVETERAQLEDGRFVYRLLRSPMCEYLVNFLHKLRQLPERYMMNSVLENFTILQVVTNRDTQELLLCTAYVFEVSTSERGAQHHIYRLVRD", "description": "Binding affinity to human recombinant N-terminal His-tagged TEAD2 (residues 209 to 424) expressed in Escherichia coli BL21 (DE3) assessed as dissociation constant"}}}
{"smiles": "C=C(F)C(=O)N1C[C@@H](n2cc(-c3cccnc3)nn2)[C@H](OCc2ccc(C(F)(F)F)cc2)C1", "values": [{"measurement": "Kd", "setting": "[1]", "result": 170, "unit": "nM"}]}
{"smiles": "O=C1N[C@@H](Cc2ccccc2)C(=O)N1c1cncc(F)c1", "values": [{"measurement": "Kd", "setting": "[2]", "result": 23000, "unit": "nM"}]}
{"smiles": "O=C(O)c1cc(NCc2ccccc2OCCOCCOCCOc2ccccc2CNc2cc(C(=O)O)cc(-c3ccnc4ccccc34)c2)cc(-c2ccnc3ccccc23)c1", "values": [{"measurement": "Kd", "setting": "[3]", "result": 40, "unit": "nM"}]}
{"smiles": "N#Cc1c(N)ncnc1-c1cnn(Cc2ccc(F)c(F)c2)c1", "values": [{"measurement": "IC50", "setting": "[4]", "result": 150, "unit": "nM"}]}
{"smiles": "N#Cc1cncnc1N", "values": [{"measurement": "IC50", "setting": "[4]", "result": 340, "unit": "nM"}]}
{"smiles": "O=C(O)c1ccccc1Nc1cccc(C(F)(F)F)c1", "note": "[FLUFENAMIC ACID]", "values": [{"measurement": "Kd", "setting": "[5]", "result": 73000, "unit": "nM"}]}
